Read-outs that look alike come from different tables or passages of the source.
Columns and labels:
[1] = tested on: patients with relapsed or refractory MCL; parameters: method as in PMID 23782157; conditions: cited from earlier work
[2] = tested on: Mino cells; assay: MTT assay, cell viability; type: cell-based; conditions: Homo sapiens, 72 h, read-out: IC50 values (nM, mean ± S.D.)
Procedure: (§1) The human lymphoma cell lines (Mino, Maver-1, Jeko-1, Z-138, OCI-Ly7, OCI-Ly10, SU-DHL-6, SU-DHL-8, U2932, Daudi, Namalwa, Raji, and Ramos) were purchased from the American Type Culture Collection (ATCC, Manassas, VA, USA) and DSMZ (Braunschweig, Germany). Cells were cultured in RPMI1640 medium containing 10% foetal bovine serum, 100 U/mL penicillin, and […] streptomycin (Invitrogen, Carlsbad, CA, USA) at 37 °C in an atmosphere of 5% CO2. OCI-Ly7 and OCI-Ly10 were cultured in IMDM. Tests for mycoplasma contamination were negative. Ibrutinib and venetocalx were purchased from Selleck Chemicals (Houston, TX, USA).
(§2) Cells (2 × 10^4) were seeded into 96-well sterile plastic plates overnight and then treated with the relevant drugs. After 72 h, 15 μL of MTT solution (5 mg/mL) was added to each well and the plates were incubated for 4 h. Crystalline formazan was solubilized with 100 μL of 10% (w/v) SDS solution for 24 h. Absorbance at 595 nm was read spectrophotometrically using a microplate reader. The results represent at least three independent experiments, and the error bars signify the standard deviation from the mean. The IC50 values were determined using GraphPad Prism software (GraphPad, Inc., La Jolla, CA, USA).

[3] = tested on: Z-138 cells; assay: MTT assay, cell viability; type: cell-based; conditions: Homo sapiens, 72 h, read-out: IC50 values (nM, mean ± S.D.)
Procedure: as §1, §2

[4] = tested on: Jeko-1 cells; assay: MTT assay, cell viability; type: cell-based; conditions: Homo sapiens, 72 h, read-out: IC50 values (nM, mean ± S.D.)
Procedure: as §1, §2

[5] = tested on: Maver-1 cells; assay: MTT assay, cell viability; type: cell-based; conditions: Homo sapiens, Maver1, 72 h, read-out: IC50 values (nM, mean ± S.D.)
Procedure: as §1, §2

[6] = tested on: U2932 cells; assay: MTT assay, cell viability; type: cell-based; conditions: Homo sapiens, 72 h, read-out: IC50 values (nM, mean ± S.D.)
Procedure: as §1, §2

[7] = tested on: OCI-Ly10 cells; assay: MTT assay, cell viability; type: cell-based; conditions: Homo sapiens, 72 h, read-out: IC50 values (nM, mean ± S.D.)
Procedure: as §1, §2

[8] = tested on: SU-DHL-6 cells; assay: MTT assay, cell viability; type: cell-based; conditions: Homo sapiens, 72 h, read-out: IC50 values (nM, mean ± S.D.)
Procedure: as §1, §2

[9] = tested on: venetoclax-resistant cells (Mino/VR-1, Mino/VR-2, Maver-1/VR-1, Maver-1/VR-2); assay: MTT assay in cells with acquired resistance to venetoclax; type: cell-based, human; conditions: all resistant cells vs parental Mino and Maver-1, 72 h
Procedure: Maver-1/VR cells were established by chronic, repeated exposure to increasing venetoclax doses up to 1 μM for more than 8 months. Maver-1/VR cells were cloned by single-cell culture, and these resistant sublines were designated as Maver-1/VR-1 and Maver-VR-2. In all studies, resistant cells were cultured in drug-fee medium for >1 week to eliminate the effects of venetoclax. The genetic identity of each subclone with the parental cells was verified by short tandem repeat (STR) analysis conducted at Cosmogenetech (Cosmogenetech co. Ltd., Seoul, Korea) according to established protocols.
as §2

[10] = tested on: patients with relapsed or refractory MCL; parameters: method as in PMID 28095146; conditions: phase I first-in-human study; cited from earlier work

| IC50 [7] | IC50 [8] | SMILES | best overall response rate [1] | complete response rate [1] | median progression-free survival [1] | IC50 [2] | IC50 [3] | IC50 [4] | IC50 [5] | IC50 [6] | fold higher resistance to venetoclax than the parental cells [9] | best overall response rate [10] | complete response rate [10] | median progression-free survival [10] |
| --- | --- | --- | --- | --- | --- | --- | --- | --- | --- | --- | --- | --- | --- | --- |
|  |  | C=CC(=O)N1CCC[C@@H](n2nc(-c3ccc(Oc4ccccc4)cc3)c3c(N)ncnc32)C1 [Ibrutinib, ibrutinib] | 68% | 21% | 13.9 months | > 1000 nM | > 10000 nM | > 10000 nM | > 10000 nM |  |  |  |  |  |
| 35.3 nM | 66.9 nM | CC1(C)CCC(CN2CCN(c3ccc(C(=O)NS(=O)(=O)c4ccc(NCC5CCOCC5)c([N+](=O)[O-])c4)c(Oc4cnc5[nH]ccc5c4)c3)CC2)=C(c2ccc(Cl)cc2)C1 [Venetoclax, venetoclax] |  |  |  | 275 ± 62.9 nM | > 1000 nM | > 1000 nM | 2.5 ± 0.4 nM | 121 nM | 10–100 fold | 75% | 21% | 14 months |

— publication PMC6510728, “Efficacy of the novel CDK7 inhibitor QS1189 in mantle cell lymphoma” (Scientific Reports, 2019)
